The nature of this data set: Solubility check of 20 wt % solutions in organic solvents. In kind it is physicochemical. Also on record: key: A: the compound dissolves at room temperature; B: the compound does not dissolve at room temperature but dissolves when heated to 60° C.; the compound does not dissolve even when heated to 60° C. To be noted: room temperature or heated to 60° C.; for Results of Solubility Chloroform: 20 wt % solution in chloroform; for Results of Solubility Cyclopentanone: 20 wt % solution in cyclopentanone; for Results of Solubility MEK: 20 wt % solution in methyl ethyl ketone (MEK); for Results of Solubility MIBK: 20 wt % solution in methyl isobutyl ketone (MIBK); for Results of Solubility Toluene: 20 wt % solution in toluene; for Results of Solubility Trichloroethane: 20 wt % solution in trichloroethane. How it is done: 20 wt % solutions of each of the compounds to be evaluated in chloroform, trichloroethane, cyclopentanone, methyl ethyl ketone (MEK), methyl isobutyl ketone (MIBK), and toluene were prepared to check the solubilities of the compound to be evaluated.

For `C=CC(=O)OCCCCOC(=O)C1CCC(C(=O)OC2CCC(C(=O)Oc3ccc(OC(=O)C4CCC(OC(=O)C5CCC(C(=O)OCCCCOC(=O)C=C)CC5)CC4)c4c3SC(=C(C#N)C(=O)OCCOCCOC(=O)C=C)S4)CC2)CC1` (stereo not drawn) [Compound I-15], the “Results of Solubility Chloroform” value was “A”, the “Results of Solubility Cyclopentanone” value was “B”, the “Results of Solubility MEK” value is recorded as “B” and the “Results of Solubility MIBK” value is on record as “C”. The “Results of Solubility Toluene” value was “B” and the “Results of Solubility Trichloroethane” value was “A”.
Take `C=CC(=O)OCCOCCOCCOc1ccc(C(=O)Oc2ccc(-c3ccc(CCC)cc3)cc2/C=N/Nc2nc3ccccc3s2)cc1` [Compound I-1]: the “Results of Solubility Chloroform” value is on record as “A”, the “Results of Solubility Cyclopentanone” value is reported as “A”, the “Results of Solubility MEK” value was “A” and the “Results of Solubility MIBK” value is reported as “A”. Further, the “Results of Solubility Toluene” value is given as “A” and the “Results of Solubility Trichloroethane” value is given as “A”.
In the case of `C=CC(=O)OCCOCCOc1ccc(OC(=O)C2CCC(C(=O)Oc3ccc(OC(=O)C4CCC(C(=O)Oc5ccc(OCCOCCOC(=O)C=C)cc5)CC4)c4sc(-c5cc6c(C)cc(C)cc6o5)nc34)CC2)cc1` (stereo not drawn) [Compound I-13], the “Results of Solubility Chloroform” value is “A”, the “Results of Solubility Cyclopentanone” value was “B”, the “Results of Solubility MEK” value is given as “C” and the “Results of Solubility MIBK” value is on record as “C”. The “Results of Solubility Toluene” value is “B” and the “Results of Solubility Trichloroethane” value was “A”.
Regarding `C=CC(=O)OCCOCCOCCOc1ccc(OC(=O)C2CCC(COc3ccc(OCC4CCC(C(=O)Oc5ccc(OCCOCCOCCOC(=O)C=C)cc5)CC4)c(/C=N/N(CCCCCC)c4nc5ccccc5s4)c3)CC2)cc1` (stereo not drawn) [Compound I-5], the “Results of Solubility Chloroform” value is recorded as “A”, the “Results of Solubility Cyclopentanone” value is recorded as “A”, the “Results of Solubility MEK” value is given as “B” and the “Results of Solubility MIBK” value was “B”. In addition, the “Results of Solubility Toluene” value was “A” and the “Results of Solubility Trichloroethane” value is given as “A”.
Turning to `C=CC(=O)OCCOCCOC(=O)C1CCC(C(=O)OC2CCC(C(=O)Oc3ccc(OC(=O)C4CCC(OC(=O)C5CCC(C(=O)OCCOCCOC(=O)C=C)CC5)CC4)c4c3SC(=C3C(=O)N(c5ccccc5)N=C3C(=O)OCC)S4)CC2)CC1` (stereo not drawn) [Compound I-14], the “Results of Solubility Chloroform” value is recorded as “A”, the “Results of Solubility Cyclopentanone” value is listed as “B”, the “Results of Solubility MEK” value is “B” and the “Results of Solubility MIBK” value was “C”. Moreover, the “Results of Solubility Toluene” value is listed as “B” and the “Results of Solubility Trichloroethane” value is recorded as “A”.
Take `C=CC(=O)OCCCCCCOc1ccc(OC(=O)C2CCC(C(=O)Oc3ccc(C4CCC(CCC)CC4)cc3/C=N/N(CCOCCOC)c3nc4ccccc4s3)CC2)cc1` (stereo not drawn) [Compound I-7]: the “Results of Solubility Chloroform” value was “A”, the “Results of Solubility Cyclopentanone” value is given as “A”, the “Results of Solubility MEK” value is “A” and the “Results of Solubility MIBK” value is on record as “B”. In addition, the “Results of Solubility Toluene” value was “A” and the “Results of Solubility Trichloroethane” value is listed as “A”.
With `C=CC(=O)OCCCOc1ccc(OC(=O)C2CCC(COc3ccc(OCC4CCC(C(=O)Oc5ccc(OCCCOC(=O)C=C)cc5)CC4)c(/C=N/N(CCOCCOC)c4nc5ccccc5s4)c3)CC2)cc1` (stereo not drawn) [Compound I-8], the “Results of Solubility Chloroform” value was “A”, the “Results of Solubility Cyclopentanone” value is given as “A”, the “Results of Solubility MEK” value is given as “B” and the “Results of Solubility MIBK” value was “B”. Also, the “Results of Solubility Toluene” value was “A” and the “Results of Solubility Trichloroethane” value is “A”.
As to `C=CC(=O)OCCOCCOCCOc1ccc(OC(=O)C2CCC(C(=O)Oc3ccc(C4CCC(CCC)CC4)cc3/C=N/N(CCCCCC)c3nc4ccccc4s3)CC2)cc1` (stereo not drawn) [Compound I-3], the “Results of Solubility Chloroform” value is reported as “A”, the “Results of Solubility Cyclopentanone” value was “A”, the “Results of Solubility MEK” value is recorded as “C” and the “Results of Solubility MIBK” value is given as “C”. Moreover, the “Results of Solubility Toluene” value is reported as “B” and the “Results of Solubility Trichloroethane” value is “A”.
As for `C=CC(=O)OCCCCCCOc1ccc(OC(=O)C2CCC(COc3ccc(OCC4CCC(C(=O)Oc5ccc(OCCCCCCOC(=O)C=C)cc5)CC4)c(/C=N/N(CCOCCOCCOC(=O)C=C)c4nc5ccccc5s4)c3)CC2)cc1` (stereo not drawn) [Compound I-9], the “Results of Solubility Chloroform” value is recorded as “A”, the “Results of Solubility Cyclopentanone” value is on record as “A”, the “Results of Solubility MEK” value is “A” and the “Results of Solubility MIBK” value is “B”. In addition, the “Results of Solubility Toluene” value is recorded as “A” and the “Results of Solubility Trichloroethane” value is listed as “A”.
As for `C=CC(=O)OCCCCCCOc1ccc(OC(=O)C2CCC(C(=O)Oc3ccc(OC(=O)C4CCC(C(=O)Oc5ccc(OCCCCCCOC(=O)C=C)cc5)CC4)c4sc(-c5ccc([N+](=O)[O-])cc5)nc34)CC2)cc1` (stereo not drawn) [Compound R-2, reference compound], the “Results of Solubility Chloroform” value is reported as “B”, the “Results of Solubility Cyclopentanone” value was “C”, the “Results of Solubility MEK” value is “C” and the “Results of Solubility MIBK” value is recorded as “C”. Besides, the “Results of Solubility Toluene” value is on record as “B” and the “Results of Solubility Trichloroethane” value is on record as “B”.
Regarding `C=CC(=O)OCCOCCOCCOc1ccc(OC(=O)C2CCC(C(=O)Oc3ccc(C4CCC(CCC)CC4)cc3/C=N/Nc3nc4ccccc4s3)CC2)cc1` (stereo not drawn) [Compound I-2], the “Results of Solubility Chloroform” value was “A”, the “Results of Solubility Cyclopentanone” value was “A”, the “Results of Solubility MEK” value is listed as “A” and the “Results of Solubility MIBK” value is reported as “B”. For the same molecule, the “Results of Solubility Toluene” value is on record as “A” and the “Results of Solubility Trichloroethane” value is “A”.
With `C=CC(=O)OCCCCCCOc1ccc(OC(=O)C2CCC(COc3ccc(-c4ccc(CCC)cc4)c(/C=N/N(CCOCCOC)c4nc5ccccc5s4)c3)CC2)cc1` (stereo not drawn) [Compound I-11], the “Results of Solubility Chloroform” value is “A”, the “Results of Solubility Cyclopentanone” value is on record as “A”, the “Results of Solubility MEK” value is reported as “B” and the “Results of Solubility MIBK” value is recorded as “B”. Besides, the “Results of Solubility Toluene” value was “A” and the “Results of Solubility Trichloroethane” value was “A”.
On to `C=CC(=O)OCCOCCOCCOc1ccc(OC(=O)C2CCC(C(=O)Oc3ccc(C4CCC(C5CCC(CCC)CC5)CC4)cc3/C=N/N(CCCCCC)c3nc4ccccc4s3)CC2)cc1` (stereo not drawn) [Compound I-4], for which the “Results of Solubility Chloroform” value is on record as “A”, the “Results of Solubility Cyclopentanone” value is “B”, the “Results of Solubility MEK” value is reported as “C” and the “Results of Solubility MIBK” value is listed as “C”. In addition, the “Results of Solubility Toluene” value is given as “B” and the “Results of Solubility Trichloroethane” value is listed as “B”.
`C=CC(=O)OCCCCCCOc1ccc(OC(=O)C2CCC(COc3ccc(C4CCC(CCC)CC4)cc3/C=N/N(CCOCCOC)c3nc4ccccc4s3)CC2)cc1` (stereo not drawn) [Compound I-10]: the “Results of Solubility Chloroform” value is “A”, the “Results of Solubility Cyclopentanone” value is on record as “A”, the “Results of Solubility MEK” value was “B” and the “Results of Solubility MIBK” value is recorded as “B”. Also, the “Results of Solubility Toluene” value is “A” and the “Results of Solubility Trichloroethane” value was “A”.
In the case of `C=CC(=O)OCCOCCOCCOc1ccc(OC(=O)C2CCC(C(=O)Oc3ccc(OC(=O)C4CCC(C(=O)Oc5ccc(OCCOCCOCCOC(=O)C=C)cc5)CC4)c4sc(-c5ccc([N+](=O)[O-])cc5)nc34)CC2)cc1` (stereo not drawn) [Compound I-12], the “Results of Solubility Chloroform” value was “A”, the “Results of Solubility Cyclopentanone” value is “B”, the “Results of Solubility MEK” value is given as “B” and the “Results of Solubility MIBK” value is on record as “C”. Moreover, the “Results of Solubility Toluene” value was “B” and the “Results of Solubility Trichloroethane” value was “A”.
On to `C=CC(=O)OCCCCCCOc1ccc(OC(=O)C2CCC(C(=O)Oc3ccc(OC(=O)C4CCC(C(=O)Oc5ccc(OCCCCCCOC(=O)C=C)cc5)CC4)c(/C=N/N(COCCOC)c4nc5ccccc5s4)c3)CC2)cc1` (stereo not drawn) [Compound R-1, reference compound], for which the “Results of Solubility Chloroform” value is “A”, the “Results of Solubility Cyclopentanone” value is “B”, the “Results of Solubility MEK” value is reported as “C” and the “Results of Solubility MIBK” value is on record as “C”. In addition, the “Results of Solubility Toluene” value is “B” and the “Results of Solubility Trichloroethane” value is “B”.
`C=CC(=O)OCCCOC(=O)C1CCC(C(=O)OC2CCC(C(=O)Oc3ccc(OC(=O)C4CCC(OC(=O)C5CCC(C(=O)OCCCOC(=O)C=C)CC5)CC4)c4c3SC(=C3C(=O)N(c5ccccc5)N=C3C(=O)OCC)S4)CC2)CC1` (stereo not drawn) [Compound R-3, reference compound]: the “Results of Solubility Chloroform” value is reported as “A”, the “Results of Solubility Cyclopentanone” value is “C”, the “Results of Solubility MEK” value is on record as “C” and the “Results of Solubility MIBK” value was “C”. For the same molecule, the “Results of Solubility Toluene” value is “B” and the “Results of Solubility Trichloroethane” value was “B”.
For `C=CC(=O)OCCCCCCOc1ccc(OC(=O)C2CCC(COc3ccc(OCC4CCC(C(=O)Oc5ccc(OCCCCCCOC(=O)C=C)cc5)CC4)c(/C=N/N(CCOCCOC)c4nc5ccccc5s4)c3)CC2)cc1` (stereo not drawn) [Compound I-6], the “Results of Solubility Chloroform” value is “A”, the “Results of Solubility Cyclopentanone” value is “A”, the “Results of Solubility MEK” value was “B” and the “Results of Solubility MIBK” value is given as “B”. Further, the “Results of Solubility Toluene” value was “B” and the “Results of Solubility Trichloroethane” value was “A”.
As to `C=CC(=O)OCCCCCCOc1ccc(OC(=O)C2CCC(C(=O)Oc3ccc(C4CCC(C5CCC(CCC)CC5)CC4)cc3/C=N/N(CCOCCOC)c3nc4ccccc4s3)CC2)cc1` (stereo not drawn) [Compound I-17], the “Results of Solubility Chloroform” value is “A”, the “Results of Solubility Cyclopentanone” value was “B”, the “Results of Solubility MEK” value is recorded as “C” and the “Results of Solubility MIBK” value is “C”. The “Results of Solubility Toluene” value was “B” and the “Results of Solubility Trichloroethane” value is given as “B”.
